Entries after “also recorded” stand apart in the source; their conditions may differ.
Columns and labels:
[1] = test system: AEA uptake in HMC-1 human mast cells; experiment: AEA uptake inhibition in FAAH-deficient HMC-1 cells; assay type: cell-based
Description: (§1) All radioactivity-based AEA and 2-AG uptake and release assays performed in U937, and HMC-1 cells were carried out using two different assay formats as previously reported. AEA and 2-AG uptake assay in Neuro2a and primary mouse cortical neurons were performed with a different method disclosed in Chicca 2017.

ABHD12 = biological target: T1, ABHD12 (Mus musculus, UniProt Q99LR1); experiment: ABHD12 activity (ABPP and radioactivity-based hydrolytic assays); assay type: biochemical; conditions: ABPP in mouse brain homogenate and hydrolytic assays
T1 construct: membrane preparations obtained from mouse brains; from tissue; host or cells: mouse brain membranes
Description: ABPP experiments were performed using membrane preparations obtained from mouse brains as described earlier.
FAAH, ABHDs, MAGL and COX-2 activity assays were performed using cell homogenates, human recombinant enzymes and mouse, rat and pig brain homogenates as previously described.

[2] = test system: 2-AG uptake in Neuro2a cells; experiment: 2-AG uptake and hydrolysis in Neuro2a cells; assay type: cell-based, mouse
Description: as §1

BALB/c male mice = experiment: Endocannabinoid and NAE levels 1 h after oral administration; assay type: in vivo, mouse; conditions: for 2-AG level in plasma: control 16.1±2.9
Description: Male C57BL6/J or male BALB/c mice were orally administered by gavage with 10, 25, 50 or 100 mg/kg of WOBE437 (100 μL; olive oil and ethanol 8:2) using a metal feeding needle (20G, Kent Scientific, USA). The mice were sacrificed by decapitation after gavage administration. Brain, blood, liver, kidney and spleen were collected for the LC-MS/MS analyses. All tissues were briefly washed with ice cold PBS and immediately snap-frozen and stored at −80° C. Whole brain samples were dissected between the hemispheres. Blood samples were immediately centrifuged to obtain plasma, which was stored at −80° C.
Samples extractions and LC-MS/MS measurements were performed as previously described (Chicca et al., 2017). Briefly, tissues were weighted and transferred in to extraction tubes containing three steel beads and 0.1 M formic acid. Tissues were homogenized and rapidly transferred to glass tubes containing 1.5 mL of ethyl acetate:hexane (9:1) 0.1% formic acid and internal standards (ISs). Samples were centrifuged and the organic phase was recovered. After evaporation, the extracts were reconstituted in 200 μL of ACN:ddH2O (8:2). 10 μL of the solution were injected in the LC-MS/MS system using the same LC and ionization protocols as described (Chicca et al., 2017).

BALB/c mice = experiment: LPS-induced endotoxemia; assay type: in vivo, mouse; conditions: 5 and 10 mg/kg
Description: (§2) WOBE437 was initially assessed in a battery of four individual tests typically associated with CB1 receptor activation in mice (nociception, locomotion, body temperature and cataleptic behavior), collectively referred to as the “tetrad”. Dose-response experiments identified 10 mg/kg as the lowest dose to elicit a moderate but complete tetrad in BALB/c mice upon intraperitoneal (i.p.) administration (FIGS. 3A-D). […] To assess whether the WOBE437-induced effects were CB1 receptor-mediated, mice were pre-treated with the selective antagonist/inverse agonist rimonabant (SR1). […] These experiments provided a proof-of-concept for the mechanism of action of WOBE437 as a novel “indirect CB1 receptor agonist”. In subsequent studies, the effects of WOBE437 in pain, inflammatory and anxiety models were investigated. […] Both effects were reversed by SR1.
(§3) WOBE437 and RX-055 were tested in independent laboratories, in different mouse strains and in multiple (behavioral) models for cannabimimetic, analgesic, anti-inflammatory and anxiolytic-effects in wild-type and phenotypical CB1-KO mice as described in Chicca 2017.

[3] = test system: cell lines and human whole blood; experiment: NAE levels in cell lines and human whole blood; assay type: cell-based
Excerpt: (§4) WOBE437, AEA, 2-AG, other lipids and hormones were quantified by LC-MS/MS in different biological matrices (cells, human whole blood, rodent tissues) as reported in Chicca 2017.

mice = experiment: Formalin test; assay type: in vivo, mouse; conditions: comparable to indomethacin (5 mg/kg)
Description: as §2, §3

C57BL6/J mice = experiment: LC-MS/MS quantification of endocannabinoids, lipids and corticosterone after i.p. injection; assay type: in vivo, mouse
Description: In order to investigate whether there was a link between the in vivo pharmacological effects of WOBE437 and the inhibition of EC uptake in vitro, the levels of WOBE437, AEA, 2-AG and related lipids in different tissues were quantified by LC-MS/MS. […] The Cbrain/Cplasma ratio (Kp) of WOBE437 was 0.65 after 5 min, 1.64 after 15 min and reached 1.9 after 30 and 60 min (FIGS. 4A and 4E). The peak concentration of WOBE437 in the brain was 780±267 nM, thus being in line with the bioactive concentrations determined in cellular assays. […] Only at 15 min post-injection, WOBE437 prevented the moderate increase of 2-AG induced by DMSO (FIG. 4C). […] On the contrary, 2-AG levels increased 1.7-fold compared to vehicle at 1 h post-injection (FIG. 4G). […] Repeated administrations of WOBE437 led to a significant 3-fold increase of corticosterone in the brain, which mirrors the changes observed in plasma (FIG. 4H). In peripheral organs, WOBE437 reached peak concentrations of 5-20 nmol/g tissue, without any signs of accumulation over 7 days. […] However, EC concentrations were not affected by repeated administrations of WOBE437 in peripheral tissues. Again, corticosterone levels were increased in spleen, liver and kidney.
as §4

[4] = 7 days of daily treatment, 10 mg/kg i.p.

T1 sequence (Q99LR1 whole entry): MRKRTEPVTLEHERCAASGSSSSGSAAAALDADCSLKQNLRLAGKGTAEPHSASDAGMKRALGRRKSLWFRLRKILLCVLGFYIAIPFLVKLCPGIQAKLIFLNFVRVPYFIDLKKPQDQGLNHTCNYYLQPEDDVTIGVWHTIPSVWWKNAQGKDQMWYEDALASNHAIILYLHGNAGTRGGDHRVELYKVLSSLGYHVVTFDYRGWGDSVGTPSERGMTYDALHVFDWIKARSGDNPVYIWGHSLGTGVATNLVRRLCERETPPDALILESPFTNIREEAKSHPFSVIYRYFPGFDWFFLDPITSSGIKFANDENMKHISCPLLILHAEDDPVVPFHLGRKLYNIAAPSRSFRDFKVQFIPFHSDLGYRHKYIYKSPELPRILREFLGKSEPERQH

`CCCCCCC/C=C/C=C/C(=O)NCCc1ccc(OC)c(OC)c1` [WOBE437, (2E,4E)-N-[2-(3,4-Dimethoxyphenyl)ethyl]dodeca-2,4-dienamide] was tested, and the IC50 ([1]; HMC1, FAAH-deficient HMC-1 human mast cells, estimated) was about 137 nM, the “Hill slope, AEA uptake” value ([1]; HMC-1 cells) was −0.934 and the “inhibition of ABHD12” value (ABHD12) was “did not inhibit”. The “reduction of overall 2-AG uptake” value ([2]; 5 μM, 2 and 5 min incubation) was 40%, the “effect on 2-AG uptake and hydrolysis” value ([2]; Neuro2a cells, time course) was “only inhibited 2-AG uptake but not hydrolysis” and the “2-AG level in plasma” value (BALB/c male mice; 25 mg/kg p.o.) was 21.4 ± 4.5 pmol/mL. The “reduction of AEA concentration in plasma” value (BALB/c male mice; 50 mg/kg p.o.) was 23%, the “2-AG levels in somatosensory cortex” value (BALB/c male mice; 50 mg/kg p.o., 1 h) was “no changes” and the “AEA levels in somatosensory cortex” value (BALB/c male mice; 50 mg/kg p.o., 1 h) was “significant increase”. The “AEA concentration in plasma” value (BALB/c male mice; 50 mg/kg p.o., control 2.6±0.2) was 2.2 ± 0.3 pmol/mL, the “2-AG concentration in total brain” value (BALB/c male mice; 50 mg/kg p.o., control 10.8±2.6) was 13.9 ± 2.6 nmol/g and the “2-AG level in plasma” value (BALB/c male mice; 50 mg/kg p.o.) was 22.6 ± 4.8 pmol/mL. The “2-AG level in plasma” value (BALB/c male mice; 100 mg/kg p.o.) was 23.8 ± 5.7 pmol/mL, the “increase of 2-AG levels in plasma” value (BALB/c male mice; 25, 50 and 100 mg/kg p.o.) was 40% and the “AEA and 2-AG levels in total brain” value (BALB/c male mice; p.o., 1 h) was “tendency to increase”. For the same compound, the “levels of N-acylethanolamines other than AEA” value (BALB/c male mice; somatosensory cortex, total brain or plasma) was “No changes”, the “effect in LPS-induced endotoxemia” value (BALB/c mice) was “protective effects” and the “levels of other NAEs” value [3] was “without altering the levels of other NAEs”. The “inflammatory pain and paw thickness” value (mice) was “reduced inflammatory pain and paw thickness”, the “brain 2-AG level increase compared to vehicle (DMSO)” value (C57BL6/J mice; [4]) was 1.5 fold and the “brain AEA level increase compared to vehicle (DMSO)” value (C57BL6/J mice; [4]) was 1.5 fold. The “circulating concentration of corticosterone” value (C57BL6/J mice; after 7 days) was “doubled”, the “concentrations of other lipids (NAEs, AA, prostaglandins and progesterone)” value (C57BL6/J mice; brain, plasma and peripheral organs) was “not significantly altered” and the “increase of corticosterone levels in brain, plasma and peripheral organs” value (C57BL6/J mice; repeated administration) was 2-4 fold. For the same compound, the “increase of corticosterone in the brain” value (C57BL6/J mice; repeated administrations) was 3 fold, the “EC concentrations in peripheral tissues” value (C57BL6/J mice; repeated administrations, 10 mg/kg) was “not affected; also recorded: did not significantly alter” and the “AEA and 2-AG levels in plasma” value (C57BL6/J mice; single and repeated injection(s)) was “not significantly affected”. For the same compound, the “2-AG levels in peripheral organs” value (C57BL6/J mice; single injection) was “not altered in the spleen, but dropped significantly after 60-360 min in liver and kidney”, the “AEA level in peripheral organs” value (C57BL6/J mice; single injection) was “did not change in liver, whereas in kidney and spleen it moderately diminished” and the “brain AEA levels compared to basal level” value (C57BL6/J mice; single injection) was “did not change”. For the same compound, the “brain 2-AG level increase compared to vehicle” value (C57BL6/J mice; single injection 10 mg/kg i.p., 1 h post-injection) was 1.7 fold.

From patent publication US10414721B1, “Inhibitor of endocannabinoid cellular reuptake” (University of Bern, priority 2018, dated 2019)
